Patent publication EP0559845B1, “Use of compounds in preventing endotoxin shock” (priority 1991, dated 1992)

Assays:
[1] = system: GTPase activity in membranes isolated from a macrophage (RAW 264.7) cell line; test: GTPase assay: basal or agonist-stimulated GTPase activity in macrophage membranes; assay type: biochemical; details: no LPS
From the text: (§1) We sought to directly evaluate the influence of LPS on possible G-protein function by examining agonist-enhanced GTPase activity, which is a hallmark of G-protein action. Moreover, because macrophages are one of the key cell types in the release of toxic mediators following an LPS challenge, we first assessed the capacity of LPS to influence GTPase activity in membranes isolated from RAW 264.7 cells, which is a highly LPS-responsive macrophage cell line. In these studies, GTPase activity was measured using a standard assay. The activity was determined using 2 µM γ-^32P-GTP in the presence of 0.1 mM ATP and 0.2 mM of the non-hydrolyzable ATP analog, AMPPNP, in order to minimize nonspecific nucleotidase activity in the membrane preparations. In the preferred practice of the present invention, the ability of a candidate compound to inhibit LPS-induced GTPase is assessed by measuring the release of ^32Pi from γ-^32P-GTP.
(§2) We first determined the optimal LPS concentration for GTPase stimulation. In all experiments, the LPS dose response curve was quite steep, and with the highest activity occurring around 200-300 µg LPS/ml.
(§3) Under these conditions, GTPase activation was evident at 100 µg LPS/ml (roughly 6 µM assuming an average MW ∼ 17,000 kDa), and the maximal effect was seen by 300 µg/ml LPS. (2) To show adenosine mucleotide synergism with LPS-stimulated GTPase activity, either 10µM ATP or 30µM ADP replace the 0.1 mM ATP and 0.2 mM AMPPNP of the standard assay described by Cassel et al. and Neer et al.
In the preferred assay, a candidate compound (.001 - 1000 µM) is dissolved or suspended in 100µl of a reaction buffer containing 20mM HEPES (pH 7.4), 0.01mM ATP or ADP, membranes isolated from RAW 264.7 cells, 2µM γ-^32P-GTP (3-9 X 10cpm/pmol), 5mM MgCl2, 18µM LPS (based on an estimated MW of 17,000 kDa for E. coli 0111:B4 endotoxin), and 250 mM ammonium sulfate. The reaction is initiated by the addition of the γ-^32P-GTP and the mixture incubated at 30-37°C for 15 to 30 minutes. The reaction is terminated by the addition of 500µl of 5% trichloroacetic acid and 500µl of 0.1gm/ml acid-activated charcoal in 5% trichloroacetic acid. The samples are centrifuged at 14,000xg for 10 minutes, and a 550µl aliquot of the supernatant is removed for scintillation counting. The supernatant will contain the released ^32Pi. The extent of GTPase inhibition is measured by the decrease in the amount of ^32Pi released from γ-^32P-GTP. Appropriate controls include mixtures with one of the following omitted: (i) test compound, (ii) endotoxin, and (iii) ATP, ADP or AMPPNP.
The macrophage-like cell line RAW 264.7 is cultured as described using RPMI 1640 medium supplemented with 10% fetal calf serum (FCS) containing < 0.1 ng/ml LPS. The membranes are resuspended in 20 mM HEPES (pH 7.4), 1 mM dithiothreitol, 1 mM EDTA and 10 µg leupeptin/ml. Aliquots are stored at -70°C until assayed.
(§4) To assess whether the LPS/ATP-enhanced GTPase is a "low Km" form, which would be expected for a variety of large and small MW G-proteins, as well as for various GAP and ARF-like proteins, as opposed to a "high Km" form, such as a phosphatase, we assayed the GTPase activity using 0.2 and 50 µM GTP essentially as described previously. […] The LPS and ATP stimulated a low Km GTPase activity by ∼30% and 70%, respectively, when added individually. This stimulation of low Km activity was slightly greater than that estimated using the standard assay conditions. […] The LPS stimulation of GTPase activity is enhanced by adenine nucleotides.

[2] = system: FCS-enhanced GTPase activity; test: Inhibition of FCS-enhanced (non-LPS-stimulated) GTPase activity in macrophage membranes; assay type: biochemical; details: 3 mg/ml lipid X; 10% FCS
Method: With respect to non-LPS-stimulated GTPase activity in this macrophage system, we observed that 10% FCS (<0.1 ng endotoxin/ml serum by the Limulus amebocyte lysate method) induced a large degree of GTPase activation, whereas 3 mg/ml lipid X inhibited the FCS-enhanced GTPase activity by ∼ 50%.

C57BL/10 mice = test: Toxicity of lipid X in mice; assay type: in vivo
Method: Eight week old mice (strain C57BL/10) were allowed to rest for at least 7 days following their arrival and were sexually segregated and housed at 5 per cage with food and water ad libitum. Intravenous injection of a GTPase inhibiting compound (lipid X dissolved in saline as described above) and/or lipopolysaccharide was achieved by the retroorbital sinus route using a 27 gauge needle. No more than 0.1 ml of fluid was injected at a time. Just prior to injection, the mice were lightly anesthetized with ether. Following the injection, mice were observed every 0.5-6 hours and the time of death was recorded. In a few experiments, mice were injected by the intraperitoneal route with solutions of lipid X and/or lipopolysaccharide similar to those described above.
To test for the toxicity of lipid X in mice, C57BL/10 mice were challenged with 750, 2000 or 5000 µg of lipid X intraperitoneally (12 mice) or with 750, 1500 or 3000 µg intravenously (7 mice). […] Consequently, lipid X appeared to be nontoxic in mice, as in sheep.

[3] = system: GTPase activity in membranes isolated from a macrophage (RAW 264.7) cell line; test: GTPase assay, basal activity and single agonists; assay type: biochemical
From the text: as §1, §2, §3
Because the above inhibitor studies indicated a maximum LPS-stimulated GTPase activity in the presence of ATP and ATP analogs, we investigated this interaction by measuring the ATP-dependence of the GTPase activity in macrophage membranes in the presence and absence of an optimal dose of LPS. […] This stimulation by ATP may be due to the action of purinergic receptors, i.e., the adenosine and ATP receptors which are well-characterized to be coupled to various G-proteins.
as §4

## CCCCCCCCCCC[C@@H](O)CC(=O)N[C@H]1[C@@H](OP(=O)(O)O)O[C@H](CO)[C@@H](O)[C@@H]1OC(=O)C[C@H](O)CCCCCCCCCCC [lipid X]
[1]
  effect on basal GTPase activity: slightly reducing basal activity
[2]
  inhibition of FCS-enhanced GTPase activity: ~50%
C57BL/10 mice; 750, 1500 or 3000 µg intravenously (7 mice)
  survival after lipid X alone: All these mice lived
C57BL/10 mice; 750, 2000 or 5000 µg intraperitoneally (12 mice)
  survival after lipid X alone: All these mice lived
[3]
  effect on basal GTPase activity: slightly reducing
